For the test, the species on record is Cavia porcellus. Put plainly: Tested for inhibition of field-stimulation-induced contraction in the isolated guinea pig ileum. It is filed as functional. The conditions noted are these: read-out: ID50 (the source's name).

As to `Cc1ccc2c(c1)-c1cccc3c1[C@@H](C2)N(C)CC3`, the IC50 stood at 6800 nM.
As for `Cc1ccc2c(c1)-c1cccc3c1[C@H](C2)N(C)CC3`, the IC50 is 1200 nM.
With `CCCN(CCC)C1CCc2cccc(O)c2C1` (racemic) [8-OH-DPAT] the figure was 60 nM.

For the origin of these results see ChEMBL document CHEMBL1127044, “Preparation and pharmacological evaluation of enantiomers of certain nonoxygenated aporphines: (+)- and (-)-aporphine and (+)- and (-)-10-methylaporphine” (1993).
